# Assay results from US10441588B2, “Methods and compositions for treating bacterial infection” (Curators of the University of Missouri, priority 2012, dated 2019).
# Where a name gives a salt, the structure may show the parent alone. Read-outs that look alike come from different tables or passages of the source.
# Experiments:
# [1] = system: S. aureus; experiment: S. aureus growth inhibition, optical density, test/control; type: cell-based, Staphylococcus aureus; details: Staphylococcus aureus, growth of bacteria test/control by optical density
# [2] = system: S. aureus biofilm; experiment: S. aureus biofilm inhibition, optical density, test/control; type: cell-based, Staphylococcus aureus; details: Staphylococcus aureus, growth of biofilm test/control by optical density
# [3] = system: S. epidermis biofilm; experiment: S. epidermis biofilm inhibition, optical density, test/control; details: Staphylococcus epidermidis, growth of biofilm test/control by optical density; for activity at 5 µM: read-out: S. epidermis Biofilm inhibition 5 μM vs. (−) Control, 5 μM; for activity at 50 µM: read-out: S. epidermis Biofilm inhibition 50 μM vs. (−) Control, 50 μM
# [4] = 5 μM, read-out: S. aureus Biofilm Inhibition 5 μM vs. (−) Control
# [5] = 50 μM, read-out: S. aureus Biofilm Inhibition 50 μM vs. (−) Control
# [6] = read-out: S. aureus Biofilm Inhibition 5 μM vs. (−) Control, 5 μM
Compound,activity at 100 µM [1] [%],activity at 100 µM [2] [%],other results
COCCSc1nc2c(c(=O)n1CCOc1ccc(OC)cc1)C(C)(C)Cc1ccccc1-2 [CCG-204060],91.2,79,–
"C#CCSc1nc2c(c(=O)n1CC=C)C(C)(C)Cc1cc(C(=O)c3ccccc3)ccc1-2 [CCG-204080, 3-allyl-8-benzoyl-5,5-dimethyl-2-(prop-2-yn-1-ylthio)-5,6-dihydrobenzo[h]quinazolin-4(3H)-one]",110,73.4,–
"COCCOc1nc(SCCOC)nc(-c2ccccc2)c1C [CCG-205361, 4-(2-Methoxyethoxy)-2-((2-methoxyethyl)thio)-5-methyl-6-phenylpyrimidine]",89,67.7,–
"C=CCOc1nc(SCCOC)nc(-c2ccccc2)c1C [CCG-205382, 4-(Allyloxy)-2-((2-methoxyethyl)thio)-5-methyl-6-phenylpyrimidine]",93.4,55.2,–
"COCCSc1nc2c(c(=O)n1Cc1ccc(-c3noc(C)n3)cc1)C(C)(C)Cc1ccccc1-2 [CCG-205387, 2-((2-Methoxyethyl)thio)-5,5-dimethyl-3-(4-(5-methyl-1,2,4-oxadiazol-3-yl)benzyl)-5,6-dihydrobenzo[h]quinazolin-4(3H)-one]",115,72.3,–
"C=CCn1c(SCC)nc2c(c1=O)C(C)(C)Cc1cc(OCC(C)C)ccc1-2 [CCG-205426, 3-allyl-2-(ethylthio)-8-isobutoxy-5,5-dimethyl-5,6-dihydrobenzo[h]quinazolin-4(3H)-one]",114,77.8,–
C=CCn1c(SCCOC)nc2c(c1=O)C(C)(C)Cc1cc(C(=O)OC)ccc1-2 [CCG-205435],126,–,activity at 10 µM [2]: 29.3%
"COCCSc1nc2c(c(=O)n1CC1CC1)C(C)(C)Cc1ccccc1-2 [CCG-205444, 3-(Cyclopropylmethyl)-2-((2-methoxyethyl)thio)-5,5-dimethyl-5,6-dihydrobenzo[h]quinazolin-4(3H)-one]",104,66.2,–
"COCCSc1nc(OCC2CC2)c2c(n1)-c1ccccc1CC2(C)C [CCG-205445, 4-(Cyclopropylmethoxy)-2-((2-methoxyethyl)thio)-5,5-dimethyl-5,6-dihydrobenzo[h]quin-azoline]",107,71.1,–
"C=CCn1c(SCCOC)nc2c(c1=O)C1(CCOCC1)Cc1ccccc1-2 [CCG-205453, 3-Allyl-2-((2-methoxyethyl)thio)-2′,3′,5′,6′-tetrahydro-3H-spiro[benzo[h]quinazoline-5,4′-pyran]-4(6H)-one]",102,79.6,–
C=CCn1c(SCC)nc2c(c1=O)C(C)(C)Cc1cc(OC(C)C)ccc1-2 [CCG-205480],115,–,activity at 10 µM [2]: 52.3%
"C=CCn1c(SCC)nc2c(c1=O)C(C)(C)Cc1cc(OCCN3C(=O)c4ccccc4C3=O)ccc1-2 [CCG-206176, 2-(2-((3-allyl-2-(ethylthio)-5,5-dimethyl-4-oxo-3,4,5,6-tetrahydrobenzo[h]quinazolin-8-yl)oxy)ethyl)isoindoline-1,3-dione]",100,79.5,–
C=CCn1c(SCC)nc2c(c1=O)C(C)(C)Cc1cc(OCC#N)ccc1-2 [CCG-206178],104,–,activity at 10 µM [2]: 56.5%
"C=CCn1c(SCCOC)nc2c(c1=O)C1(CCN(C(C)=O)CC1)Cc1ccccc1-2 [CCG-206230, 1′-Acetyl-3-allyl-2-((2-methoxyethyl)thio)-3H-spiro[benzo[h]quinazoline-5,4′-piperidin]-4(6H)-one]",97,–,activity at 10 µM [2]: 85.5%
"C=CCn1c(SCCOC)nc2c(c1=O)C1(CCN(C(=O)c3ccccc3)CC1)Cc1ccccc1-2 [CCG-206231, 3-Allyl-1′-benzoyl-2-((2-methoxyethyl)thio)-3H-spiro[benzo[h]quinazoline-5,4′-piperidin]-4(6H)-one]",111,53,activity at 10 µM [2]: 52.5%
"C=CCn1c(SCCOC)nc2c(c1=O)C1(CCN(C=O)CC1)Cc1ccccc1-2 [CCG-206234, 3-Allyl-2-((2-methoxyethyl)thio)-4-oxo-4,6-dihydro-3H-spiro[benzo[h]quinazoline-5,4′-piperidine]-1′-carbaldehyde]",99,65,activity at 10 µM [2]: 101%
"C=CCn1c(SCCOC)nc2c(c1=O)C1(CCN(C(=O)c3ccc(Cl)cc3)CC1)Cc1ccccc1-2 [CCG-206235, 3-Allyl-1′-(4-chlorobenzoyl)-2-((2-methoxyethyl)thio)-3H-spiro[benzo[h]quinazoline-5,4′-piperidin]-4(6H)-one]",106,77.6,–
C=CCn1c(SCC(F)(F)F)nc2c(c1=O)C(C)(C)Cc1ccc(OC)cc1-2 [CCG-206352],101,47,activity at 10 µM [2]: 60.4%
C=CCn1c([S+]([O-])CC)nc2c(c1=O)C(C)(C)Cc1ccc(OC)cc1-2 (stereo not shown) [CCG-206355],96,74.7,–
CCSc1nc(OCC(F)(F)F)c2c(n1)-c1cc(OC)ccc1CC2(C)C [CCG-206356],110,59.1,–
"C=CCn1c(SCCOC)nc2c(c1=O)C1(CCN(C(=O)OC(C)(C)C)CC1)Cc1cc(OC)ccc1-2 [CCG-206660, tert-butyl 3-allyl-8-methoxy-2-((2-methoxyethyl)thio)-4-oxo-4,6-dihydro-3H-spiro[benzo[h]quinazoline-5,4′-piperidine]-1′-carboxylate]",–,–,"activity at 5 µM [2, 4]: 46%; activity at 50 µM [2, 5]: 60.1%; activity at 5 µM [3]: 71.5%; activity at 50 µM [3]: 64.3%"
"C=CCn1c(SCCOC)nc2c(c1=O)C1(CCNCC1)Cc1cc(OC)ccc1-2 [CCG-206661, 3-allyl-8-methoxy-2-((2-methoxyethyl)thio)-3H-spiro[benzo[h]quinazoline-5,4′-piperidin]-4(6H)-one hydrochloride]",–,–,"activity at 5 µM [2, 6]: 86.9%; activity at 5 µM [3]: 98.7%"
"C=CCn1c(SCC)nc2c(c1=O)C1(CCN(C(=O)OC(C)(C)C)CC1)Cc1cc(OC)ccc1-2 [CCG-206663, tert-butyl 3-allyl-2-(ethylthio)-8-methoxy-4-oxo-4,6-dihydro-3H-spiro[benzo[h]quinazoline-5,4′-piperidine]-1′-carboxylate]",–,–,"activity at 5 µM [2, 4]: 49.9%; activity at 5 µM [3]: 73.4%; activity at 50 µM [3]: 76.1%"
"C=CCn1c(SCC)nc2c(c1=O)C1(CCNCC1)Cc1cc(OC)ccc1-2 [CCG-206664, 3-allyl-2-(ethylthio)-8-methoxy-3H-spiro[benzo[h]quinazoline-5,4′-piperidin]-4(6H)-one hydrochloride]",–,–,"activity at 5 µM [2, 6]: 89%; activity at 50 µM ([2]; read-out: S. aureus Biofilm Inhibition 50 μM vs. (−) Control, 50 μM): 2.8%; activity at 5 µM [3]: 87.7%"
"C=CCn1c(SCCOC)nc2c(c1=O)C1(CCN(C(=O)OC(C)(C)C)C1)Cc1ccccc1-2 (stereo not shown) [CCG-208860, tert-butyl 3-allyl-2-((2-methoxyethyl)thio)-4-oxo-4,6-dihydro-3H-spiro[benzo[h]quinazoline-5,3′-pyrrolidine]-1′-carboxylate]",–,–,"activity at 5 µM [2, 4]: 70.4%; activity at 50 µM [2, 5]: 46.4%; activity at 5 µM [3]: 85%; activity at 50 µM [3]: 79.8%"
"C=CCn1c(SCCOC)nc2c(c1=O)C1(CCN(C(=O)Nc3ccccc3)CC1)Cc1cc(OC)ccc1-2 [CCG-211971, 3-allyl-8-methoxy-2-((2-methoxyethyl)thio)-4-oxo-N-phenyl-4,6-dihydro-3H-spiro[benzo[h]quinazoline-5,4′-piperidine]-1′-carboxamide]",–,–,activity at 5 µM [3]: 125%; activity at 50 µM [3]: 69%
